Here are results for two compounds from paper PMC11521309, “A novel 4-aminoquinoline chemotype with multistage antimalarial activity and lack of cross-resistance with PfCRT and PfMDR1 mutants” (PLOS Pathogens, 2024).

Each structure is given as a SMILES string. “And” between values parts separate entries of the source, which are not always exact repeats. Equal values may be shown once. Read-outs that look alike come from different tables or passages of the source.

Data set [1] relates to P. falciparum Dd2^M343L. Details: key to Phenotype, Dd2^M343L: S: sensitive; R: resistant. Conditions: cited from earlier work.
Data set [2] has as its system P. falciparum Dd2^G353V. Details: key to Phenotype, Dd2^G353V: S: sensitive; R: resistant. Particulars: cited from earlier work.
Data set [3] deals with P. falciparum 7G8^C350R. Details: key to Phenotype, 7G8^C350R: S: sensitive; R: resistant. Conditions: cited from earlier work.
Data set [4] deals with P. falciparum FCB^KD1. Details: method as in ref 2 Sidhu et al. 2006. Particulars: means ± SEM, N 4; ref 2 Sidhu et al. 2006; read-out: IC50 FCBKD1; cited from earlier work.
Data set [5] has as its system P. falciparum Dd2 ABS parasites. Nature of the data set: ABS parasite survival assay, 72 h, flow cytometry. Particulars: Plasmodium falciparum. Type of data set: cell-based. How it is done: (§1) P. falciparum ABS parasites were cultured at 3% hematocrit in human O^+ RBCs in RPMI-1640 media supplemented with 25 mM HEPES, 50 mg/L hypoxanthine, 2 mM L-glutamine, 0.21% sodium bicarbonate, 0.5% (w/v) AlbuMAXII (Invitrogen) and 10 μg/mL gentamycin. Culture flasks were kept in modular incubator chambers (Billups-Rothenberg) in a 5% O2, 5% CO2, and 90% N2 atmosphere at 37°C. Synchronized ring-stage parasites were obtained by two consecutive rounds of treatment with 5% D-sorbitol in 48-hour intervals. […] This was done by exposing cultures at 1% hematocrit and 0.3% parasitemia in 96-well plates in the presence of drugs in a two-fold 10 or 12-point serial dilution in duplicate along with drug-free controls. After a 72-hour incubation, parasite survival was assessed by flow cytometry on an iQue flow cytometer (Sartorius) using SYBR Green and MitoTracker Deep Red FM (Life Technologies) as nuclear stain and vital dye, respectively. Parasite survival was determined as a percentage relative to drug-free control. IC50 values were interpolated from log concentration versus response curves in Prism 9 (GraphPad Prism Software Inc.).

Data set [6] is described as follows: MTT cytotoxicity assay, 72 h. It counts as cell-based, monkey. Conditions: monkey, COS-7 cells; MTT, 72 h, N = 3. The protocol: (§2) Human hepatoma (HepG2) and fibroblast-like monkey kidney cells (COS-7) were cultured in Dulbecco’s Modified Eagle Medium supplemented with 10% heat-inactivated fetal bovine serum and gentamycin (40 mg/L) at 37°C in a 5% CO2 atmosphere. Cytotoxicity of test compounds was measured by metabolic reduction of mitochondrial enzymes using the MTT assay (3-[4,5-dimethyl-thiazol-2-yl]-2,5-diphenyltetrazolium chloride). Cells were seeded at 10^5 cells/well in 96-well plates and incubated for 72 hours in the presence of a 2-fold 12-point serial dilution of drugs along with drug-free controls. After adding 15 μL of MTT (5 mg/mL) to the wells, plates were centrifuged at 317g for 5 minutes and the pellet was resuspended in isopropanol. Absorbance was measured at 570 nm (CLARIOStar, Labtech BMG). Cell viability was determined by formazan production, and was expressed as a percentage of untreated control wells.
A general note: Tetrazolium assays rely on reduction of a dye to a coloured formazan, in cell work by metabolically active cells.

The subject of data set [7] is COS-7 cells. The data set is described as follows: MTT cytotoxicity assay, 72 h. It counts as cell-based, monkey. The protocol:
as §2

Data set [8] has as its system P. berghei PbGFP-Luccon liver stage. Nature of the data set: In vitro inhibition of liver stage infection of Huh-7 cells, bioluminescence. Type of data set: cell-based, Plasmodium berghei. How it is done: In vitro inhibition of Plasmodium liver stage infection was assessed using bioluminescence data from Huh-7 cells infected with a firefly-luciferase-expressing P. berghei line, PbGFP-Luccon, in the presence of various compound concentrations. […] One day before drug treatment and infection, 10^4 Huh-7 cells/well were seeded in 96-well plates. The medium was then replaced by an infection medium (culture medium supplemented with 50 μg/mL gentamycin and 0.8 μg/mL amphotericin B) containing desired concentrations of test compounds. Fresh sporozoites recovered from salivary glands of infected female Anopheles stephensi mosquitoes were added to seeded Huh-7 cells at a 1:1 proportion, followed by centrifugation at 1700g for 5 minutes and incubation for 46 hours at 37°C under 5% CO2. Compound toxicity against Huh-7 cells was assessed by measuring […] using the Alamar Blue assay (Invitrogen). IC50 values were calculated using nonlinear regression analysis (GraphPad Prism version 9).

For data set [9], the system named is P. falciparum FCB^KD1. Nature of the data set: ABS susceptibility, pfmdr1-modified line. It counts as cell-based. Particulars: Plasmodium falciparum. How it is done:
as §1

The subject of data set [10] is P. falciparum Dd2-Polδ Flask 1. The data set is described as follows: ABS susceptibility after resistance selection, recrudescent line. Type of data set: cell-based, Plasmodium falciparum. Conditions: for % Parasite survival: Dd2 Pol D Flask 1, rep 1-5. How it is done:
as §1
(§3) Resistance to LDT-623 was assessed using single-step in vitro resistance selection protocols. […] Dd2-Pol δ is a hypermutable line with two point mutations in DNA polymerase δ that compromise its proofreading activity Cultures were monitored daily by thin blood smears until live parasites were no longer detectable. Drug-containing media was changed daily until parasites cleared, and every other day thereafter. Cultures were passaged once weekly by reducing the volume by 25% and replacing 1/3 of RBCs. Recrudescence monitoring was carried out twice a week by thin blood smears for 60 days. In the event of recrudescence, parasite susceptibility to LDT-623 was tested as described above.

Data set [11] deals with P. falciparum Dd2-Polδ Flask 2. Described as above. It counts as cell-based, Plasmodium falciparum. Particulars: for % Parasite survival: Dd2 Pol D Flask 2, rep 1-5. The protocol: as §1, §3

For orientation: IC50 means the concentration that gives 50% inhibition. By CC50 is commonly meant the concentration that lowers cell viability or growth by half. Broadly, the inhibition is how much of the control response was suppressed. Usually IC90 stands for the point of the concentration-response curve where the effect stands at 90%.

`CCN(CC)CCCC(C)Nc1ccnc2cc(Cl)ccc12` (stereo not shown) [CQ, chloroquine]: the concentration for half-maximal inhibition (IC50) in [1] (Dd2M343L, mean ± SEM, ref 1 (Ross et al., 2018)) was 41.8 ± 1.9 nM; in [2] (Dd2G353V, mean ± SEM, ref 1 (Ross et al., 2018)) it was 54.6 ± 4.9 nM; in data set [3] (7G8C350R, mean ± SEM, ref 3 (Kim et al., 2019)) it was 6.9 ± 0.3 nM; in [4] it was 242 ± 43.9 nM. In addition, the “Phenotype, Dd2^M343L” value in data set [1] (ref [19],[20],[51]) is “R”. Moreover, in data set [2] (ref [19],[20],[51]), the “Phenotype, Dd2^G353V” value was “S”. Moreover, the “Phenotype, 7G8^C350R” value in data set [3] (ref [19],[20],[51]) is “S”.
For the compound `COc1cc2nccc(Nc3cccc(Oc4ccccc4)c3)c2cc1OC` [LDT-623], the IC50 in data set [5] (DD2, ABS parasites, N = 3, read-out: IC50 Dd2) turned out to be 300 ± 30 nM; in data set [5] (DD2, CQ-resistant strain, read-out: IC50 Dd2), 365 nM; in data set [5] (DD2, read-out: IC50 Dd2), 365 ± 17.5 nM; in data set [8] (Plasmodium berghei, Huh-7 cells, P. berghei sporozoites, 48h, N = 2, read-out: IC50 hepatic stage infection), 983 nM; in [9] (read-out: IC50 FCBKD1), 488 ± 12 nM. In addition, half-maximal cytotoxicity in data set [6] (CC50 at 72 h) was put at 500 ± 100 nM. Besides, in data set [7], the “SI (CC50 COS-7 / IC50 3D7)” value is 3.8. The “% Infection” value in [8] (0.01 µM, Average) is 105.58%; in data set [8] (0.01 µM, Rep #1, Rep #2 singly, DMSO = 100), 99.71% and 111.44%; in [8] (0.10 µM, Average) it was 109.90%; in data set [8] (0.10 µM, Rep #1, Rep #2 singly, DMSO = 100), 116.90% and 102.90%; in data set [8] (0.50 µM, Average) it was 89.46%; in [8] (0.50 µM, Rep #1, Rep #2 singly, DMSO = 100), 98.58% and 80.35%. Moreover, the “% Infection” value is 47.89% in data set [8] (1.00 µM, Average); 59.84% and 35.94% in data set [8] (1.00 µM, Rep #1, Rep #2 singly, DMSO = 100); 16.43% in data set [8] (1.50 µM, Average); 16.43% in [8] (1.50 µM, Rep #2 only, DMSO = 100); 10.50% in data set [8] (2.00 µM, Average); 13.79% and 7.22% in data set [8] (2.00 µM, Rep #1, Rep #2 singly, DMSO = 100). The “% Infection” value in data set [8] (3.00 µM, Average) is 3.61%; in data set [8] (3.00 µM, Rep #1, Rep #2 singly, DMSO = 100), 5.04% and 2.18%; in [8] (4.00 µM, Average), 3.01%; in [8] (4.00 µM, Rep #1 only, DMSO = 100) it was 3.01%. The inhibition at 1 µM in [8] (Plasmodium berghei, Huh-7, 1 μM, read-out: inhibition of hepatic infection) is 52.1%. Besides, the IC90 in data set [9] (read-out: IC90 FCBKD1) came out at 7650 ± 1120 nM. The “% Parasite survival” value in data set [10] (0.09 uM) was 100.00% and 83.53% and 90.04% and 99.83%; in [10] (0.19 uM), 92.44% and 73.57% and 80.08% and 80.97% and 100.00%; in data set [10] (0.78 uM), 0.00%; in [10] (1.56 uM) it was 0.00% and 1.04%; in data set [10] (50 uM), 0.00% and 0.35%; in [11] (0.09 uM), 88.00% and 80.84% and 100.00% and 86.03%. The “% Parasite survival” value is 82.04% and 70.05% and 89.31% and 86.03% and 100.00% in [11] (0.19 uM); 0.00% and 7.11% and 0.21% in data set [11] (0.78 uM); 1.80% and 2.03% and 1.07% and 0.00% in data set [11] (1.56 uM); 7.60% and 5.20% and 3.53% and 0.39% and 7.52% in data set [11] (3.12 uM); 0.00% and 7.74% and 3.09% in data set [11] (25 uM); 0.00% and 5.80% in data set [11] (50 uM). In addition, the “mean AUC of survival curve” value in [10] (recrudescent parasites, Flask 1) stood at 53.8; in data set [11] (recrudescent parasites, Flask 2), 22.3.
